Measured values from patent US11680060B2, “Bicycloheptane pyrrolidine orexin receptor agonists” (Merck Sharp & Dohme LLC, priority 2020, dated 2023).

Biological target: human OX2R (Homo sapiens (Human), UniProt O43614)
Assay: IPOne (IP-1) assay in CHO cells expressing human OX2R
Format: cell-based
Details: for IC50: CHO cells expressing human OX2R, IP-One detection, 2 hours incubation, EC50 = inflection point of four parameter logistic fit, read-out: hOX2R_IP_IC50; for Emax: CHO, read-out: Emax (%); for Emax / Emax (%): percentage of mean max effect of a reference compound at 1 uM (100% activity by comparison to Orexin A), human OX2R
From the text: The utility of the compounds in accordance with the present invention as orexin receptor OX1R and/or OX2R agonists may be readily determined without undue experimentation by methodology well known in the art. Both the OX1R and/or OX2R G-coupled protein receptors (GPCRs) couple through the Gαq signaling pathway, which ultimately promotes calcium mobilization via inositol triphosphate (IP3) production. The half-life of IP-3 is relatively short, being rapidly metabolized to inositol monophosphate (IP-1), which can be readily detected using a commercially available assay kit (IP-One; Cisbio; cat #621PAPEC) coupled with a cell line expressing the target receptor(s) of interest. The utility of the compounds in accordance with the present invention as orexin receptor OX1R and/or OX2R agonists may be determined utilizing this assay.
In a typical experiment, the OX1 and OX2 receptor agonist activity is determined in accordance with the following general experimental method. Chinese hamster ovary (CHO) cells expressing human OX1R and/or the human OX2R were grown in Iscove's modified DMEM containing glutaMAX™, 1% G418, 100 U/mL penicillin, 100 μg/mL streptomycin and 10% heat-inactivated qualified fetal bovine serum (FBS). The OX2R cells were seeded at 10,000 cells/well/50 μL and the OX1R cells were seeded at 20,000 cells/well/50 μL into 384-well white tissue culture plates (Greiner; cat #781080). All cell/media reagents were from GIBCO-Invitrogen Corp. The seeded cell plate(s) were incubated at 37° C. with 5% CO2 and 85% humidity for 20-24 hours. On the day of the assay, assay-ready compound plates were prepared using an acoustic liquid handler (ECHO; Labcyte), which dispensed sufficient volume of test compound stock (10 mM in DMSO) or 100% DMSO to prepare 10 point, ½-log dilutions in a final volume of 202.5 nL/well in all test wells of a 384-well diamond plate (Labcyte). Following completion of assay-ready plates, importantly, the next three steps were performed with minimal delay: 1) 20 μl of 1× stimulation buffer was added to the compound plate using a Multidrop Combi (small cassette, Thermo Fisher Scientific cat #24073290); 2) culture medium was removed from the cell plate using the Bluewasher plate washer (gentle spin; BlueCatBio); 3) 14 μl of compound/stimulation buffer mixture was added to the cell plate using a Bravo liquid handler (Agilent) prior to incubating cell plates at 37° C. with 5% CO2 and 85% humidity for 1 or 2 hours (OX1R and OX2R, respectively). During this incubation, IP-one detection reagents were prepared (38:1:1 lysis buffer:D2:AB-cryptate reagents). Six μL of mixed detection reagents were added to the cell plate using a Multidrop Combi (small cassette, Thermo Fisher Scientific cat #24073290) and incubated 60 minutes at room temperature in the dark. Fluorescence signal was detected using an Envision plate reader (Perkin Elmer) [LANCE/DELFIA Dual Enh (Em: APC 665; Ex: Cy5 620)].
For each compound, data were fit to a four parameter logistic fit (ActivityBase software) and the EC50 was reported as the inflection point of the resulting curve. Percent effect for each test compound was determined as the percentage of sample raw value/mean max effect, where the mean max effect was derived from the mean raw value of 32 control wells per assay plate (using Orexin A (cat #003-30) at 1 μM for human OX1R and a reference compound at 1 uM with 100% activity previously established by comparison to Orexin A for human OX2R). The intrinsic orexin receptor agonist activity of a compound which may be used in the present invention may be determined by these assays.

Sequence of human OX2R (O43614 whole entry): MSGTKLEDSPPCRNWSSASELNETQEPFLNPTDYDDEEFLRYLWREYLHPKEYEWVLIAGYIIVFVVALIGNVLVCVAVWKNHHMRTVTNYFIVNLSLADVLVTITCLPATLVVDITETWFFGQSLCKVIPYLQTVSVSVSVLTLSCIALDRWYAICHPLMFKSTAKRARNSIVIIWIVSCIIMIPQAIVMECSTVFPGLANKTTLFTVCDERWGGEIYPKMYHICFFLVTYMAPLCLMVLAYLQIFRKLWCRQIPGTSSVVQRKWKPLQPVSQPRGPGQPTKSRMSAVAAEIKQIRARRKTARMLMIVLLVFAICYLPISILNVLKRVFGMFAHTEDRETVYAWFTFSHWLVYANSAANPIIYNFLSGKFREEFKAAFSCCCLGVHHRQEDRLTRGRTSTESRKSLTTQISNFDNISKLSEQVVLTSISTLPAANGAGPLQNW

COC(=O)N1[C@H](C)C[C@H](NS(=O)(=O)N(C)C)[C@@H]1CO[C@@H]1CC[C@]2(c3ncc(F)cn3)C[C@@H]2C1 (single isomer, unassigned) [Example 165]
IC50: 3.9 nM | Emax: 101%

COC(=O)N1CC[C@H](NS(C)(=O)=O)[C@@H]1CO[C@@H]1CC[C@]2(c3ncccn3)C[C@@H]2C1 (single isomer, unassigned) [Example 176]
IC50: 2030 nM | Emax: 94.7%

COC(=O)N1CC[C@H](NS(C)(=O)=O)[C@@H]1CO[C@H]1CC[C@@]2(c3ncccn3)C[C@H]2C1 (single isomer, unassigned) [Example 177]
IC50: 238 nM | Emax: 99.8%

COC(=O)N1[C@H](C)C[C@H](NS(C)(=O)=O)[C@@H]1CO[C@@H]1CC[C@]2(c3ncccn3)C[C@@H]2C1 (single isomer, unassigned) [Example 180]
IC50: 100 nM | Emax: 99.7%

COC(=O)N1[C@H](C)C[C@H](NS(C)(=O)=O)[C@@H]1CO[C@H]1CC[C@@]2(c3ncccn3)C[C@H]2C1 (single isomer, unassigned) [Example 181]
IC50: 4.5 nM | Emax: 101%

COC(=O)N1[C@H](C)C[C@H](NS(C)(=O)=O)[C@@H]1COC1CCC2(c3ncccn3)CC2C1 (single isomer, unassigned) [Example 183]
IC50: 2260 nM | Emax: 89.7%

COC(=O)N1[C@H](C)C[C@H](NS(=O)(=O)N(C)C)[C@@H]1COC1CCC2(c3ncccn3)CC2C1 (single isomer, unassigned) [Example 186]
IC50: 142 nM | Emax: 99.5%

COC(=O)N1[C@H](C)C[C@H](NS(=O)(=O)N(C)C)[C@@H]1COC1CCC2(c3ncccn3)CC2C1 (single isomer, unassigned) [Example 187]
IC50: 2.1 nM | Emax (%): 100.0%

COC(=O)N1[C@H](C)C[C@H](NS(=O)(=O)N(C)C)[C@@H]1COC1CCC2(c3cc(F)cc(F)c3)CC2C1 (stereo partly drawn) [Example 4, methyl (2R,3S,5R)-2-(((6-(3,5-difluorophenyl)bicyclo[4.1.0]heptan-3-yl)oxy)methyl)-3-((N,N-dimethylsulfamoyl)amino)-5-methylpyrrolidine-1-carboxylate]
Emax: 97.3%

COC(=O)N1[C@H](C)C[C@H](NS(=O)(=O)N(C)C)[C@@H]1COC1CCC2(c3ccc(C#N)cc3)CC2C1 (stereo partly drawn) [Example 5, methyl (2R,3S,5R)-2-(((6-(4-cyanophenyl)bicyclo[4.1.0]heptan-3-yl)oxy)methyl)-3-((N,N-dimethylsulfamoyl)amino)-5-methylpyrrolidine-1-carboxylate]
Emax: 99.8%

COC(=O)N1[C@H](C)C[C@H](NS(=O)(=O)N(C)C)[C@@H]1COC1CCC2(c3ncccn3)CC2C1 (stereo partly drawn) [Example 6, methyl (2R,3S,5R)-3-((N,N-dimethylsulfamoyl)amino)-5-methyl-2-(((6-(pyrimidin-2-yl)bicyclo[4.1.0]heptan-3-yl)oxy)methyl)pyrrolidine-1-carboxylate]
Emax: 101%

COC(=O)N1[C@H](C)C[C@H](NS(=O)(=O)N(C)C)[C@@H]1COC1CCC2(c3ncccn3)C(C1)C2(F)F (stereo partly drawn) [Example 7, methyl (2R,3S,5R)-2-(((7,7-difluoro-6-(pyrimidin-2-yl)bicyclo[4.1.0]heptan-3-yl)oxy)methyl)-3-((N,N-dimethylsulfamoyl)amino)-5-methylpyrrolidine-1-carboxylate]
Emax: 39.4%

CC(C)OC(=O)N1[C@H](C)C[C@H](NS(=O)(=O)N(C)C)[C@@H]1COC1CCC2(c3ncccn3)CC2C1 (stereo partly drawn) [Example 8, isopropyl (2R,3S,5R)-3-((N,N-dimethylsulfamoyl)amino)-5-methyl-2-(((6-(pyrimidin-2-yl)bicyclo[4.1.0]heptan-3-yl)oxy)methyl)pyrrolidine-1-carboxylate]
Emax (%): 95.4%

COC(=O)N1[C@H](C)C[C@H](NS(=O)(=O)N(C)C)[C@@H]1COC1CCC2(c3ccccn3)CC2C1 (stereo partly drawn) [Example 9, methyl (2R,3S,5R)-3-((N,N-dimethylsulfamoyl)amino)-5-methyl-2-(((6-(pyridin-2-yl)bicyclo[4.1.0]heptan-3-yl)oxy)methyl)pyrrolidine-1-carboxylate]
Emax: 99%

COC(=O)N1[C@H](C)C[C@H](NS(=O)(=O)N(C)C)[C@@H]1COC1CCC2(c3cnccn3)CC2C1 (stereo partly drawn) [Example 10, methyl (2R,3S,5R)-3-((N,N-dimethylsulfamoyl)amino)-5-methyl-2-(((6-(pyrazin-2-yl)bicyclo[4.1.0]heptan-3-yl)oxy)methyl)pyrrolidine-1-carboxylate]
Emax: 85.6%

COC(=O)N1[C@H](C)C[C@H](NS(=O)(=O)N(C)C)[C@@H]1COC1CCC2(c3cnccn3)CC2C1 (stereo partly drawn) [Example 13, methyl (2R,3S,5R)-3-((N,N-dimethylsulfamoyl)amino)-5-methyl-2-(((6-(pyrazin-2-yl)bicyclo[4.1.0]heptan-3-yl)oxy)methyl)pyrrolidine-1-carboxylate]
Emax (%): 82.0%

COC(=O)N1CC[C@H](NS(C)(=O)=O)[C@@H]1COC1CCC2(c3ncccn3)CC2C1 (stereo partly drawn) [Example 21, methyl (2R,3S)-3-(methylsulfonamido)-2-(((6-(pyrimidin-2-yl)bicyclo[4.1.0]heptan-3-yl)oxy)methyl)pyrrolidine-1-carboxylate]
Emax (%): 94.6%

CC(C)OC(=O)N1[C@H](C)C[C@H](NS(C)(=O)=O)[C@@H]1CO[C@H]1CC[C@@]2(c3ncc(F)cn3)C[C@H]2C1 [Example 28, isopropyl (2R,3S,5R)-2-((((1S,3S,6R)-6-(5-fluoropyrimidin-2-yl)bicyclo[4.1.0]heptan-3-yl)oxy)methyl)-5-methyl-3-(methylsulfonamido)pyrrolidine-1-carboxylate]
Emax: 103%

CC(C)OC(=O)N1[C@H](C)C[C@H](NS(C)(=O)=O)[C@@H]1CO[C@@H]1CC[C@]2(c3ncc(F)cn3)C[C@@H]2C1 [Example 29, isopropyl (2R,3S,5R)-2-((((1R,3R,6S)-6-(5-fluoropyrimidin-2-yl)bicyclo[4.1.0]heptan-3-yl)oxy)methyl)-5-methyl-3-(methylsulfonamido)pyrrolidine-1-carboxylate]
Emax: 102%

COC(=O)N1[C@H](C)C[C@H](NS(=O)(=O)CF)[C@@H]1CO[C@H]1CC[C@@]2(c3ncc(F)cn3)C[C@H]2C1 [Example 30, methyl (2R,3S,5R)-3-((fluoromethyl)sulfonamido)-2-((((1S,3S,6R)-6-(5-fluoropyrimidin-2-yl)bicyclo[4.1.0]heptan-3-yl)oxy)methyl)-5-methylpyrrolidine-1-carboxylate]
Emax: 99.2%

COC(=O)N1[C@H](C)C[C@H](NS(=O)(=O)C(F)(F)F)[C@@H]1CO[C@H]1CC[C@@]2(c3ncc(F)cn3)C[C@H]2C1 [Example 31, methyl (2R,3S,5R)-2-((((1S,3S,6R)-6-(5-fluoropyrimidin-2-yl)bicyclo[4.1.0]heptan-3-yl)oxy)methyl)-5-methyl-3-((trifluoromethyl)sulfonamido)pyrrolidine-1-carboxylate]
Emax: 101%

COC(=O)N1[C@H](C)C[C@H](NS(=O)(=O)CC(F)(F)F)[C@@H]1CO[C@H]1CC[C@@]2(c3ncc(F)cn3)C[C@H]2C1 [Example 32, methyl (2R,3S,5R)-2-((((1S,3S,6R)-6-(5-fluoropyrimidin-2-yl)bicyclo[4.1.0]heptan-3-yl)oxy)methyl)-5-methyl-3-((2,2,2-trifluoroethyl)sulfonamido)pyrrolidine-1-carboxylate]
Emax: 103%

CCCS(=O)(=O)N[C@H]1C[C@@H](C)N(C(=O)OC)[C@H]1CO[C@H]1CC[C@@]2(c3ncc(F)cn3)C[C@H]2C1 [Example 33, methyl (2R,3S,5R)-2-((((1S,3S,6R)-6-(5-fluoropyrimidin-2-yl)bicyclo[4.1.0]heptan-3-yl)oxy)methyl)-5-methyl-3-(propylsulfonamido)pyrrolidine-1-carboxylate]
Emax: 105%
